The subject of this test is RSV A2. Briefly: RSV antiviral cytopathic effect (CPE) assay. The class given is cell-based. As to conditions: human respiratory syncytial virus, HEp-2, 120 h, HEp2 cells infected with RSV A2 (moi ~0.01), 5 days, MTT readout. The procedure: Compounds of the invention were tested for their antiviral activity against respiratory syncytial virus. Cytopathic effect (CPE) assays were performed essentially as described in the literature (see for example Watanabe et al, 1994, J. Virological Methods, 48:257). Serial dilutions of the test compounds were made in 96 well plates. HEp2 cells (1.0×10^4 cells/well) were infected with RSV at a low multiplicity of infection (e.g. RSV A2 at an moi of ˜0.01) and added to plates to assess antiviral activity. Uninfected HEp2 cells were used to assess compound cytotoxicity. Assays were incubated for 5 days at 37° C. in a 5% CO2 atmosphere. The extent of CPE was determined via metabolism of the vital dye 3-(4,5-dimethylthiaxol-2-yl)-2,5-diphenyltetrazolium bromide (MTT). MTT (1 mg/ml) was added to each well and plates incubated for 2 hours incubation at 37° C. Wells were aspirated, iso-propanol (200 μL) was added and absorbance values read at 540/650 nm. Compound concentrations that inhibited CPE by 50% (EC50) and developed cytotoxicity (CC50) were calculated using non-linear regression analysis.
Representative mean EC50 values obtained are also provided. In the inventors' experience, replicate EC50 values usually fall within three standard deviations of the mean.
For orientation: Protection from cytopathic effect is a common read-out in antiviral testing.

Setting [1] is: read-out: Activity Range (RSV A2 EC50).
[2] abbreviates: mean EC50, read-out: RSV A2 EC50.

The record followed here is patent US8604034B2, “Substituted imidazo[1,2-α]pyrrolo[1,2-d]pyrazines for treating respiratory syncytial virus (RSV) infections” (Biota Scientific Management Pty Ltd., priority 2010, dated 2013).

Read-outs that look alike come from different tables or passages of the source. Bounds are passed on as bounds.

The EC50 is the concentration needed to bring the measured effect to its halfway point. Turning to `Cc1nocc1C(=O)N1CCN2C(=O)c3cccn3CC12c1ccncc1` (centres unmarked) [Compound 122, 1-[(3-methyl-1,2-oxazol-4-yl)carbonyl]-10a-(pyridin-4-yl)-2,3,10,10a-tetrahydro-1H,5H-imidazo[1,2-a]pyrrolo[1,2-d]pyrazin-5-one], the half-maximal effective concentration (EC50) is, setting by setting: under setting [1], 100 to 499 nM; under setting [2], 430 nM.
The matching figures for `CCc1nocc1C(=O)N1CCN2C(=O)c3cccn3CC12c1ccc(OC)cc1` (centres unmarked) [Compound 67]: less than 49 nM and 17 nM.
In the case of `COc1ccc(C23Cn4cccc4C(=O)N2CCN3C(=O)c2ncoc2C2CC2)cc1` (centres unmarked) [Compound 59], the concentration for a half-maximal effect (EC50) under setting [1] was in the range of 100 to 499 nM and the EC50 under setting [2] was found to be 180 nM.
For `Cc1cc2n(n1)CC1(c3ccc(Cl)cc3)N(C(=O)c3ccc(F)cc3)CCN1C2=O` (centres unmarked) [Compound 42], the EC50 under setting [1] was more than 10000 nM.
With `COc1ccc(C23Cn4nccc4C(=O)N2CCN3C(=O)c2conc2C)cc1` (centres unmarked) [Compound 157], the EC50 was 100 to 499 nM under setting [1] and 360 nM under setting [2].
With `Cc1nocc1C(=O)N1CCN2C(=O)c3cccn3CC12c1ccc(=O)n(C)c1` (centres unmarked) [Compound 143, 1-[(3-methyl-1,2-oxazol-4-yl)carbonyl]-10a-(1-methyl-6-oxo-1,6-dihydropyridin-3-yl)-2,3,10,10a-tetrahydro-1H,5H-imidazo[1,2-a]pyrrolo[1,2-d]pyrazin-5-one], the concentration giving a half-maximal response (EC50) under setting [1] was in the range of 500 to 10000 nM and the half-maximal effective concentration (EC50) under setting [2] turned out to be 750 nM.
`COc1ccc(C23Cn4cc(-c5nnn[nH]5)cc4C(=O)N2CCN3C(=O)c2conc2C)cc1` (centres unmarked) [Compound 75, 10a-(4-methoxyphenyl)-1-[(3-methyl-1,2-oxazol-4-yl)carbonyl]-7-(1H-tetrazol-5-yl)-2,3,10,10a-tetrahydro-1H,5H-imidazo[1,2-a]pyrrolo[1,2-d]pyrazin-5-one]: the 50% effective concentration (EC50) under setting [1] was more than 10000 nM.
On to `O=C(c1ccon1)N1CCN2C(=O)c3cccn3CC12c1ccc(Cl)cc1` (centres unmarked) [Compound 16], for which the 50% effective concentration (EC50) was 500 to 10000 nM under setting [1] and 980 nM under setting [2].
The matching figures for `COc1ccc(C23Cn4cccc4C(=O)N2CCN3C(=O)c2cccn2C)cc1` (centres unmarked) [Compound 60]: 500 to 10000 nM and 4700 nM.
In the case of `Cc1ccc(C23Cn4cccc4C(=O)N2CCN3C(=O)c2conc2C)cn1` (centres unmarked) [Compound 77], the concentration for a half-maximal effect (EC50) under setting [1] was in the range of 50 to 99 nM and the 50% effective concentration (EC50) under setting [2] is 56 nM.
The matching figures for `Cc1ccc(C23Cn4cc(-c5cccnc5)cc4C(=O)N2CCN3C(=O)c2conc2C)nc1` (centres unmarked) [Compound 120]: 50 to 99 nM and 87 nM.
With `COc1ccc(C23Cn4cccc4C(=O)N2CCN3C(=O)c2snnc2C)cc1` (centres unmarked) [Compound 56], the half-maximal effective concentration (EC50) is 100 to 499 nM under setting [1] and 370 nM under setting [2].
The matching figures for `Cc1nocc1C(=O)N1CCN2C(=O)c3cc(-c4cnn(C)c4)cn3CC12c1ccc(CO)cc1` (centres unmarked) [Compound 144]: 50 to 99 nM and 79 nM.
For the compound `Cc1nocc1C(=O)N1CCN2C(=O)c3cc(C(=O)N(C)C)cn3CC12c1ccc(Cl)cc1` (centres unmarked) [Compound 38, 10a-(4-chlorophenyl)-N,N-dimethyl-1-[(3-methyl-1,2-oxazol-4-yl)carbonyl]-5-oxo-2,3,10,10a-tetrahydro-1H,5H-imidazo[1,2-a]pyrrolo[1,2-d]pyrazine-7-carboxamide], the concentration for a half-maximal effect (EC50) under setting [1] is more than 10000 nM.
As to `Cc1nocc1C(=O)N1CCN2C(=O)c3cccn3CC12C1CCCCC1` (centres unmarked) [Compound 19], the EC50 is 50 to 99 nM under setting [1] and 65 nM under setting [2].
The matching figures for `Cc1nocc1C(=O)OCc1ccc(C23Cn4cccc4C(=O)N2CCN3C(=O)c2conc2C)cc1` (centres unmarked) [Compound 62, 4-{1-[(3-methyl-1,2-oxazol-4-yl)carbonyl]-5-oxo-2,3-dihydro-1H,5H-imidazo[1,2-a]pyrrolo[1,2-d]pyrazin-10a(10H)-yl}benzyl 3-methyl-1,2-oxazole-4-carboxylate]: less than 49 nM and 48 nM.
The matching figures for `Cc1nocc1C(=O)N1CCN2C(=O)c3nccn3CC12c1ccc(Cl)cc1` (centres unmarked) [Compound 11]: 100 to 499 nM and 170 nM.
With `Cc1nocc1C(=O)N1CCN2C(=O)c3cccn3CC12C(C)(C)C` (centres unmarked) [Compound 21], the EC50 under setting [1] is more than 10000 nM.
